Test system: NF-κ B
Assay: Inhibitory activity of NF-κ B activation, luciferase reporter assay in HepG2 under TNF-α stimulation
Assay type: cell-based, human
Conditions: HepG2, TNF-α (40 ng/ml), 4 hours; for inhibition at 1 µg/mL / inhibition at 10 µg/mL: Homo sapiens; for Inhibitory Ratio of NF-κ B Activation(%) Drug Concentration 1 μg/mL / inhibition at 1 µg/mL: 1 μg/mL; for inhibition at 1 µg/mL: read-out: Inhibitory Ratio of NF-κ B Activation(%) Drug Concentration 1 μg/mL; for Inhibitory Ratio of NF-κ B Activation(%) Drug Concentration 10 μg/mL / inhibition at 10 µg/mL: 10 μg/mL; for inhibition at 10 µg/mL: read-out: Inhibitory Ratio of NF-κ B Activation(%) Drug Concentration 10 μg/mL
Protocol: Using a transfection reagent(Effectene; QIAGEN), the human hepatoma cell strain HepG2 was transfected with a plasmid(pNF κ B-Luc Reporter Plasmid; […]) which is integrated with an oligonucleotide having five tandem copies of NF-κ B binding sequences([…]) on a upstream region of firefly luciferase gene(Luc) according to the QIAGEN's protocol, and the cells were incubated for 6 to 24 hours. After the addition of TNF-α (40 ng/ml) in the presence or absence of a test compound, the cells were incubated for 4 hours, and intracellular luciferase activity was measured by using PicaGene LT (TOYO INK MFG Co., Ltd.) and a chemical luminescence measurement apparatus ([…]luor Plus; TECAN). The inhibitory ratio was measured as a ratio relative to the value of a luciferase activity in the absence of the test compound.

Structure (SMILES)	Inhibitory Ratio of NF-κ B Activation(%) Drug Concentration 10 μg/mL [%]	Inhibitory Ratio of NF-κ B Activation(%) Drug Concentration 1 μg/mL [%]	inhibition at 1 µg/mL [%]	inhibition at 10 µg/mL [%]
O=C(Nc1ccc(O)c(C(=O)Nc2cc(C(F)(F)F)cc(C(F)(F)F)c2)c1)c1ccccc1 [Compound No. 45]	63.4	–	–	–
O=C(Nc1ccccc1)Nc1ccc(O)c(C(=O)Nc2cc(C(F)(F)F)cc(C(F)(F)F)c2)c1 [Compound No. 46]	88.4	20.5	–	–
O=C(Nc1cc(C(F)(F)F)cc(C(F)(F)F)c1)c1cc(NC(=S)Nc2ccccc2)ccc1O [Compound No. 47]	97.2	51.8	–	–
O=C(Nc1cc(C(F)(F)F)cc(C(F)(F)F)c1)c1cc(N=Nc2ccc([N+](=O)[O-])cc2)ccc1O [Compound No. 48]	98.7	96.2	–	–
O=C(Nc1cc(C(F)(F)F)cc(C(F)(F)F)c1)c1cc(N=Nc2ccc(S(=O)(=O)Nc3ccccn3)cc2)ccc1O [Compound No. 49]	89.1	19.4	–	–
CC(=O)Nc1cc(O)c(C(=O)Nc2cc(C(F)(F)F)cc(C(F)(F)F)c2)cc1Cl [Compound No. 50, 4-Acetylamino-N-[3,5-bis(trifluoromethyl)phenyl]-5-chloro-2-hydoxybenzamide]	96.0	69.9	–	–
O=C(Nc1cc(C(F)(F)F)cc(C(F)(F)F)c1)c1c(O)cccc1O [Compound No. 52]	97.3	96.4	–	–
Cc1ccc(C(=O)Nc2cc(C(F)(F)F)cc(C(F)(F)F)c2)c(O)c1 [Compound No. 53]	94.5	93.3	–	–
O=C(Nc1cc(C(F)(F)F)cc(C(F)(F)F)c1)c1cc(Br)c(O)cc1O [Compound No. 54]	86.5	–	–	–
O=C(Nc1cc(C(F)(F)F)cc(C(F)(F)F)c1)c1ccc(O)cc1O [Compound No. 55]	88.6	10.8	–	–
O=C(Nc1cc(C(F)(F)F)cc(C(F)(F)F)c1)c1cc(Cl)cc(Cl)c1O [Compound No. 56]	95.1	89.4	–	–
O=C(Nc1cc(C(F)(F)F)cc(C(F)(F)F)c1)c1cccc(O)c1O [Compound No. 57]	91.9	–	–	–
Cc1cccc(C(=O)Nc2cc(C(F)(F)F)cc(C(F)(F)F)c2)c1O [Compound No. 58, N-[3,5-bis(trifluoromethyl)phenyl]-2-hydroxy-3-methylbenzamide]	–	–	88.2	95
COc1cccc(C(=O)Nc2cc(C(F)(F)F)cc(C(F)(F)F)c2)c1O [Compound No. 59]	94.7	41.9	–	–
CC(C)(C)CC(C)(C)c1ccc(O)c(C(=O)Nc2cc(C(F)(F)F)cc(C(F)(F)F)c2)c1 [Compound No. 60]	99.1	94.0	–	–
O=C(Nc1cc(C(F)(F)F)cc(C(F)(F)F)c1)c1c(O)c(Cl)cc(Cl)c1Cl [Compound No. 61]	97.2	95.1	–	–
CC(C)(C)c1cc(C(=O)Nc2cc(C(F)(F)F)cc(C(F)(F)F)c2)c(O)c(C(C)(C)C)c1 [Compound No. 62]	86.9	37.0	–	–
O=C(Nc1cc(C(F)(F)F)cc(C(F)(F)F)c1)c1cccc(Cl)c1O [Compound No. 64]	94.1	84.9	–	–
COc1ccc(C(=O)Nc2cc(C(F)(F)F)cc(C(F)(F)F)c2)c(O)c1 [Compound No. 65]	89.8	83.3	–	–
O=C(Nc1cc(C(F)(F)F)cc(C(F)(F)F)c1)c1cc2ccccc2cc1O [Compound No. 72]	95.0	94.6	–	–

Structure (SMILES)	Inhibitory Ratio of NF-κ B Activation(%) Drug Concentration 10 μg/mL [%]	Inhibitory Ratio of NF-κ B Activation(%) Drug Concentration 1 μg/mL [%]	inhibition at 1 µg/mL [%]	inhibition at 10 µg/mL [%]
O=C(Nc1cc(C(F)(F)F)cc(C(F)(F)F)c1)c1scc(Br)c1O [Compound No. 74, 4-Bromo-3-hydroxy-N-[3,5-bis(trifluoromethyl)phenyl]thiophene-2-carboxamide]	–	–	64	97.5
O=C(Nc1cc(C(F)(F)F)cc(C(F)(F)F)c1)c1cc(Cl)cnc1O [Compound No. 75]	82.2	58.1	–	–
O=C(Nc1cc(C(F)(F)F)cc(C(F)(F)F)c1)c1cc(Cl)ccc1O [Compound No. 80]	73.0	46.3	–	–
CC(=O)Oc1ccc(Cl)cc1C(=O)Nc1cc(C(F)(F)F)ccc1C(F)(F)F [Compound No. 82]	96.8	94.0	–	–
Cc1ccc(O)c(C(=O)Nc2cc(C(F)(F)F)ccc2C(F)(F)F)c1 [Compound No. 84]	96.6	92.6	–	–
O=C(Nc1cc(F)cc(C(F)(F)F)c1)c1cc(Cl)ccc1O [Compound No. 85]	98.9	94.7	–	–
O=C(Nc1cc(C(F)(F)F)ccc1F)c1cc(Cl)ccc1O [Compound No. 87]	95.9	93.1	–	–
CC(=O)Oc1ccc(Cl)cc1C(=O)Nc1cc(C(F)(F)F)ccc1Cl [Compound No. 89]	97.4	96.7	–	–
O=C(Nc1cc(C(F)(F)F)ccc1[N+](=O)[O-])c1cc(Cl)ccc1O [Compound No. 91]	96.7	86.3	–	–
COc1ccc(C(F)(F)F)cc1NC(=O)c1cc(Cl)ccc1O [Compound No. 95]	98.5	91.8	–	–
CSc1ccc(C(F)(F)F)cc1NC(=O)c1cc(Cl)ccc1O [Compound No. 96]	99.1	94.6	–	–
O=C(Nc1cc(C(F)(F)F)ccc1N1CCCC1)c1cc(Br)ccc1O [Compound No. 97]	97.8	95.8	–	–
O=C(Nc1cc(C(F)(F)F)ccc1N1CCOCC1)c1cc(Br)ccc1O [Compound No. 98]	86.4	81.8	–	–
O=C(Nc1cc(C(F)(F)F)ccc1Cl)c1cc([N+](=O)[O-])ccc1O [Compound No. 99]	98.0	54.3	–	–
Cc1ccc(O)c(C(=O)Nc2cc(C(F)(F)F)ccc2Cl)c1 [Compound No. 100]	95.1	85.6	–	–
COc1ccc(O)c(C(=O)Nc2cc(C(F)(F)F)ccc2Cl)c1 [Compound No. 101]	82.0	17.7	–	–
Cc1ccc(O)c(C(=O)Nc2cc(C(F)(F)F)ccc2C)c1 [Compound No. 102]	98.3	89.3	–	–
O=C(Nc1cc(Br)cc(C(F)(F)F)c1)c1cc(Cl)ccc1O [Compound No. 104]	99.2	97.2	–	–
COc1cc(NC(=O)c2cc(Cl)ccc2O)cc(C(F)(F)F)c1 [Compound No. 105]	97.5	94.6	–	–

From patent US20060089395A1, “Nf-kb activation inhibitors” (priority 2002, published 2006)
